Data reported in PMC5674027 (Scientific Reports, 2017).

Key:
[1] = target: interaction between claudin-4 and C-CPE (Homo sapiens, UniProt O14493); experiment: biochemical; assay type: binding
rat jejunum [2] = details: in vivo
occludin = assay type: cell-based, human; details: 100 µM, 24 h
CLDN4 = assay type: cell-based, human; details: n = 3
CLDN3 = assay type: cell-based, human; details: n = 3
claudin-4 [3] = assay type: cell-based, human; details: n = 3
[4] = tested on: various human cancer cell lines; details: cited from earlier work
Caco-2 cell monolayers = assay type: cell-based, human; details: 100 µM thiostrepton, apical sulfo-NHS-SS-biotin (606.7 Da) 10 min; Caco-2 monolayer
Description: Figure 5 Thiostrepton effect on paracellular tracer permeability. Caco-2 cell monolayers were treated with 100 µM thiostrepton or left untreated (control) and then apically incubated with sulfo-NHS-SS-biotin (606.7 Da; red) and counterstained with anti-ZO-1 antibody (green; TJ stain) and DAPI (blue; nuclear stain). […] Bar = 10 µm.
Localisation of claudins-1 and -4, occludin and ZO-1 on Caco-2 cells was assessed by immunofluorescence microscopy. Caco-2 cells were seeded on Transwell filters (diameter, 12 mm; pore size, 0.4 µm; Corning). After treatment with thiostrepton (100 µM) or no treatment for 24 h, the Caco-2 cells were fixed with methanol–acetone (1:1 v/v) for 5 min and then permeabilised with 0.2% Triton X-100 in PBS for 10 min. After non-specific binding had been blocked by incubation with 1% BSA in TBS buffer (20 mM Tris-HCl, pH 7.4, 40 mM NaCl) containing 0.05% Tween-20 (T-TBS) for 1 h, the cells were incubated with anti-claudin-1, -claudin-4, -occludin and -ZO-1 antibodies in 1% BSA in T-TBS for 1 h. After incubation of the cells with fluorescent secondary antibodies for 1 h, the immunofluorescence images were observed under an immunofluorescence microscope (Keyence, Tokyo, Japan). For visualisation of biotin passing through the TJ, Caco-2 cells treated with 100 µM thiostrepton or left untreated were apically labelled with sulfo-NHS-SS-biotin (606.7 Da) for 10 min. […]

melanoma cells = details: cited from earlier work
claudin-3 = assay type: cell-based, human; details: n = 3
claudin-1 [5] = assay type: cell-based, human; details: 100 µM, 24 h
C-CPE = assay type: binding, Clostridium perfringens
CLDN1 = assay type: cell-based, human; details: n = 3
Caco-2 cell monolayer = assay type: cell-based, human
Description: Caco-2 cells were allowed to differentiate for 10 to 14 days on Transwell filters (diameter, 6.5 mm; pore size, 0.4 µm; Corning, Corning, MA, USA) before their use in TER and paracellular flux assays. Caco-2 cell monolayers had TER values of 600–800 Ω•cm^2. TER values were measured by using a Millicell-ERS epithelial volt–ohm meter (Millipore Corporation, Billerica, MA, USA). For the paracellular tracer flux assay, 100 µM dialysed FD-4 was added to the medium in the upper chamber. After 1 h of incubation, the medium was collected from the bottom chamber, and the amount of FD-4 was measured with a TriStar LB 941 microplate reader (Berthold Technologies).

ZO-1 = assay type: cell-based, human; details: 100 µM, 24 h
[6] = target: recombinant human claudin-4 protein (Homo sapiens, UniProt O14493); experiment: biochemical; assay type: binding
recombinant human claudin-4 protein, sequence (O14493 whole entry): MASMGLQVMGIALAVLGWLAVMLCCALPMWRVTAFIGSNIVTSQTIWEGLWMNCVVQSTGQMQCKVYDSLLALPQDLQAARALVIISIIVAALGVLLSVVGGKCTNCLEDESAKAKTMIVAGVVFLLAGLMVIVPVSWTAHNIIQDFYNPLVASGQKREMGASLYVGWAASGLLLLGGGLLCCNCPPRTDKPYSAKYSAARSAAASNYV

breast cancer cells = details: cited from earlier work
[7] = tested on: claudin-4 (HT1080/CLDN4 cells); assay type: cell-based
claudin-1 [8] = assay type: cell-based, human; details: n = 3
[9] = tested on: claudin-3 (HT1080/CLDN3 cells); assay type: cell-based
claudin-4 [10] = assay type: cell-based, human; details: 100 µM, 24 h
rat jejunum [11] = assay type: in vivo; details: n = 4
Caco-2 cells = assay type: cell-based, human; details: 1–100 µM, 24 h; n = 3
Description: For analysis of thiostrepton-induced cytotoxicity on Caco-2 cells, a lactate dehydrogenase (LDH) release assay was performed according to the manufacturer’s instructions. After being treated with thiostrepton for 24 h, the level of LDH released into the culture medium was analysed. Treatment with 0.2% Tween-20 was used as a 100% lysis control. Absorbance was measured at a wavelength of 570 nm by using a TriStar LB 941 microplate reader (Berthold Technologies).

interaction between claudin-4 and C-CPE, sequence (O14493 whole entry, looked up): as the sequence (O14493 whole entry) above

With `C=C(NC(=O)C(=C)NC(=O)c1csc(C2=N[C@@H]3c4csc(n4)[C@H]4NC(=O)c5csc(n5)[C@H]([C@](C)(O)[C@@H](C)O)NC(=O)[C@H]5CSC(=N5)/C(=C/C)NC(=O)[C@H]([C@@H](C)O)NC(=O)c5csc(n5)[C@]3(CC2)NC(=O)[C@H](C)NC(=O)C(=C)NC(=O)[C@H](C)NC(=O)[C@H]([C@@H](C)CC)N[C@@H]2C=Cc3c([C@H](C)O)cc(nc3[C@H]2O)C(=O)O[C@@H]4C)n1)C(N)=O` [Thiostrepton] the IC50 [1] was 1.02 µM, the “TR-FRET (% of control), inhibition of TR-FRET signal by interaction between claudin-4 and C-CPE” value [1] was 66.24 % of control and the “intestinal tissue toxicity (histochemical analysis)” value (rat jejunum [2]) was “no evidence of intestinal tissue toxicity”. The “cellular localisation of occludin” value (occludin) was “did not alter the cellular localisation”, the “claudin-4 mRNA level” value (CLDN4) was “increased” and the “claudin-3 mRNA level” value (CLDN3) was “significantly decreased”. For the same compound, the “claudin-4 protein, 1% Triton-X-insoluble fraction” value (claudin-4 [3]) was “increased”, the “claudin-4 protein, 1% Triton-X-soluble fraction” value (claudin-4 [3]) was “increased” and the anti-tumour activity [4] was “shows anti-tumour activity in various human cancer cell lines”. For the same compound, the biotin permeation (Caco-2 cell monolayers) was “biotin signal was detected within the paracellular space”, the “effect on melanoma cells” value (melanoma cells) was “suppresses cell growth and induces apoptosis” and the “claudin-3 protein, 1% Triton-X-insoluble fraction” value (claudin-3) was “unchanged”. For the same compound, the “claudin-3 protein, 1% Triton-X-soluble fraction” value (claudin-3) was “significantly decreased”, the “cellular localisation of claudin-1” value (claudin-1 [5]) was “did not alter the cellular localisation” and the “binding to C-CPE” value (C-CPE) was “did not bind to C-CPE”. For the same compound, the “claudin-1 mRNA level” value (CLDN1) was “significantly decreased”, the “TER (%)” value (Caco-2 cell monolayer; 10 µM, 24 h, percentage of the TER value at 0 h) was 55.2% and the “attenuation of barrier function of Caco-2 cells, comparison among hits” value (Caco-2 cell monolayer; among the hit compounds, Supplementary Figure 4, 10 µM, 24 h) was “greatest attenuation of the barrier function of Caco-2 cells”. For the same compound, the “paracellular flux of FD-4” value (Caco-2 cell monolayer; thiostrepton 1–100 µM, 24 h, Caco-2 apical to basal, 100 µM FD-4 1 h, fluorescence plate reader, n = 3) was “dose-dependent increase in the paracellular flux of FD-4”, the “effect on TER value of Caco-2 cells” value (Caco-2 cell monolayer; thiostrepton 1–100 µM, 12, 18, 24 h, then 24 h after medium change, n = 3) was “reversibly decreased the TER value of Caco-2 cells in a time- and dose-dependent manner” and the “cellular localisation of ZO-1” value (ZO-1) was “did not alter the cellular localisation”. The Kd [6] was 6.62 µM, the “effect on breast cancer cells” value (breast cancer cells) was “leads to cell-cycle arrest and cell death by down-regulating FOXM1 gene expression” and the “inhibition of C-CPE binding to claudin-4 on the cell membrane” value [7] was “inhibited the binding of C-CPE to claudin-4 on the cell membrane”. The “claudin-1 protein, 1% Triton-X-insoluble fraction” value (claudin-1 [8]) was “unchanged”, the “claudin-1 protein, 1% Triton-X-soluble fraction” value (claudin-1 [8]) was “significantly decreased” and the “inhibition of C-CPE interaction with claudin-3” value [9] was “inhibited the interaction between C-CPE and claudin-3, but this effect was substantially weaker than that for claudin-4”. For the same compound, the “cellular localisation of claudin-4” value (claudin-4 [10]) was “did not alter the cellular localisation”, the “maximum plasma FD-4 concentration” value (rat jejunum [11]) was 0.6 µg/mL and the “rat jejunal absorption of FD-4” value (rat jejunum [11]) was “enhanced rat jejunal absorption of FD-4 in a dose-dependent manner”. The “cytotoxicity to Caco-2 cells (LDH release)” value (Caco-2 cells) was “not cytotoxic to Caco-2 cells in the concentration range of 1–100 µM”.
